The target of assay [1] is human BACE-1 (Homo sapiens (Human), UniProt P56817). The experiment in a line: Test 1: Inhibition of human BACE-1.
The target in assay [2] is human BACE-2 (Homo sapiens (Human), UniProt Q9Y5Z0). The experiment in a line: Test 2: Inhibition of human BACE-2. It counts as biochemical. The source says:
Test 2: Inhibition of Human BACE-2

The mark [3] stands for this setting: read-out: BACE-1 IC50, mean IC50, recombinant BACE-1, acetate buffer pH 4.5, fluorescence-quenched peptide substrate.
Where [4] appears, read: mean IC50, recombinant BACE-2, acetate buffer pH 4.5, fluorescence-quenched peptide substrate, read-out: BACE-2 IC50.

Each structure is given as a SMILES string. Where a name gives a salt, the structure may show the parent alone. Read-outs that look alike come from different tables or passages of the source.

human BACE-2, sequence (Q9Y5Z0 63-473): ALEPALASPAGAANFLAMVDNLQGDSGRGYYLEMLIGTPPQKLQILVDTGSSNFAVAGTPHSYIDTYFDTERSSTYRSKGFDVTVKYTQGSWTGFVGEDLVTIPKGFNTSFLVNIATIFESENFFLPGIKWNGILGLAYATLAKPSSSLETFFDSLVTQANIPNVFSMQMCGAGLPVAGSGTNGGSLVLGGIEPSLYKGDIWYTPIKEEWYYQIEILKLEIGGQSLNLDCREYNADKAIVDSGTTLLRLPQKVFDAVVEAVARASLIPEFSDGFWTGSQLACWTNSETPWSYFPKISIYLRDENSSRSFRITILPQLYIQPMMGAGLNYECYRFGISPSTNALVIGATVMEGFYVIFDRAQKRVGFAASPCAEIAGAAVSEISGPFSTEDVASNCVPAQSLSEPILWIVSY
human BACE-1, sequence (P56817 46-457): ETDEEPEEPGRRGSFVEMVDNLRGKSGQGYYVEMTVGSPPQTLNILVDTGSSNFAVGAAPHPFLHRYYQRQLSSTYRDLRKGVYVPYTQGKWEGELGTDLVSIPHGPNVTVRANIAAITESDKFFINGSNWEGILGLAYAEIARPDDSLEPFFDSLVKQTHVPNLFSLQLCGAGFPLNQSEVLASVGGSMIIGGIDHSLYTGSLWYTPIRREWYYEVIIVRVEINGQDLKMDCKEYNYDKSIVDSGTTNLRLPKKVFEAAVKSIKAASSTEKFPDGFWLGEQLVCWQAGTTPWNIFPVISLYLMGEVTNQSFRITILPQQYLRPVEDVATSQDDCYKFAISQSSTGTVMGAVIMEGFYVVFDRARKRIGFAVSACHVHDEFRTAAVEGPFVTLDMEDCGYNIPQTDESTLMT

A word on the IC50: it is the concentration that inhibits the measured activity by half. `Cc1cc(C#N)cnc1C(=O)Nc1ccc(F)c([C@]2(C(F)F)COCC(N)=N2)n1` [Example 38, 5-Cyano-3-methyl-pyridine-2-carboxylic acid [6-((R)-5-amino-3-difluoromethyl-3,6-dihydro-2H-[1,4]oxazin-3-yl)-5-fluoro-pyridin-2-yl]-amide]: the IC50 is 0.033 µM in assay [1] (setting [3]) and 0.16 µM in assay [2] (setting [4]).
Turning to `C[C@@]1(c2cccc(NC(=O)c3ncc(Br)cc3Cl)n2)CO[C@@](C)(C(F)(F)F)C(N)=N1` [Example 22, 5-Bromo-3-chloro-pyridine-2-carboxylic acid [6-((3R,6R)-5-amino-3,6-dimethyl-6-trifluoromethyl-3,6-dihydro-2H-[1,4]oxazin-3-yl)-pyridin-2-yl]-amide], the half-maximal inhibitory concentration (IC50) in assay [1] (setting [3]) came out at 0.013 µM; in assay [2] (setting [4]), 0.005 µM.
For the molecule `C[C@@]1(c2cccc(NC(=O)c3ncc(OCC(F)(F)F)nc3N)n2)CO[C@@](C)(C(F)(F)F)C(N)=N1` [Example 23, 3-Amino-5-(2,2,2-trifluoro-ethoxy)-pyrazine-2-carboxylic acid [6-((3R,6R)-5-amino-3,6-dimethyl-6-trifluoromethyl-3,6-dihydro-2H-[1,4]oxazin-3-yl)-pyridin-2-yl]-amide], the IC50 is 1.2 µM in assay [1] (setting [3]) and more than 10 µM in assay [2] (setting [4]).
As for `[2H]c1nc(C(=O)Nc2cccc(C3(CF)COCC(N)=N3)n2)c(C([2H])([2H])[2H])c([2H])c1Cl` (stereo not shown) [Example 6, 5-{6-[(4,6-Dideutero-5-chloro-3-trideuteromethyl-pyridine-2-carbonyl)-amino]-pyridin-2-yl}-5-fluoromethyl-5,6-dihydro-2H-[1,4]oxazin-3-yl-ammonium trifluoro acetate], the concentration for half-maximal inhibition (IC50) in assay [1] was 0.55 µM; in assay [2], 0.24 µM.
Turning to `C[C@]1(c2cccc(NC(=O)c3ccc(C#N)cn3)n2)CO[C@@](C)(C(F)(F)F)C(N)=N1` [Example 9, 5-Cyano-pyridine-2-carboxylic acid [6-((3S,6R)-5-amino-3,6-dimethyl-6-trifluoromethyl-3,6-dihydro-2H-[1,4]oxazin-3-yl)-pyridin-2-yl]-amide hydrochloride], the IC50 in assay [1] (setting [3]) was 6.2 µM.
As for `C[C@@]1(c2cc(NC(=O)c3ncc(OC(F)F)cc3Cl)ncc2F)CO[C@@](C)(C(F)(F)F)C(N)=N1` [Example 36, 3-Chloro-5-difluoromethoxy-pyridine-2-carboxylic acid [4-((3R,6R)-5-amino-3,6-dimethyl-6-trifluoromethyl-3,6-dihydro-2H-[1,4]oxazin-3-yl)-5-fluoro-pyridin-2-yl]-amide], the figures for the IC50 in assay [1] (setting [3]) and in assay [2] (setting [4]) were 0.41 µM and 0.28 µM, respectively.
On to `C[C@@]1(c2nc(NC(=O)c3nc4ccn(CC(F)F)c4nc3N)ccc2F)CO[C@@](C)(C(F)(F)F)C(N)=N1` [Example 45, 3-Amino-5-(2,2-difluoro-ethyl)-5H-pyrrolo[2,3-b]pyrazine-2-carboxylic acid [6-((3R,6R)-5-amino-3,6-dimethyl-6-trifluoromethyl-3,6-dihydro-2H-[1,4]oxazin-3-yl)-5-fluoro-pyridin-2-yl]amide], for which the half-maximal inhibitory concentration (IC50) in assay [1] and in assay [2] was more than 10 µM each time.
As for `C[C@@]1(c2cccc(NC(=O)c3ccc(Br)cn3)n2)COCC(N)=N1` [Example 1, 5-Bromo-pyridine-2-carboxylic acid [6-((R)-5-amino-3-methyl-3,6-dihydro-2H-[1,4]-oxazin-3-yl)-pyridin-2-yl]-amide], the half-inhibitory concentration (IC50) worked out at 0.39 µM in assay [1] (setting [3]) and 0.26 µM in assay [2] (setting [4]).
As to `C[C@@]1(c2cccc(NC(=O)c3ncc(C#N)cc3Cl)n2)CO[C@@](C)(C(F)(F)F)C(N)=N1` [Example 20, 3-Chloro-5-cyano-pyridine-2-carboxylic acid [6-((3R,6R)-5-amino-3,6-dimethyl-6-trifluoromethyl-3,6-dihydro-2H-[1,4]oxazin-3-yl)-pyridin-2-yl]-amide], the IC50 in assay [1] (setting [3]) is 0.01 µM; in assay [2] (setting [4]) it was 0.041 µM.
As for `Cc1cnc(C(=O)Nc2ccc(F)c([C@]3(C)CO[C@@](C)(C(F)(F)F)C(N)=N3)n2)cn1` [Example 33, 5-Methyl-pyrazine-2-carboxylic acid [6-((3R,6R)-5-amino-3,6-dimethyl-6-trifluoromethyl-3,6-dihydro-2H-[1,4]oxazin-3-yl)-5-fluoro-pyridin-2-yl]amide], the IC50 was 0.82 µM in assay [1] (setting [3]) and 0.33 µM in assay [2] (setting [4]).
Regarding `C[C@@]1(c2cccc(NC(=O)c3ncc(C#N)cc3N)n2)CO[C@@](C)(C(F)(F)F)C(N)=N1` [Example 19, 3-Amino-5-cyano-pyridine-2-carboxylic acid [6-((3R,6R)-5-amino-3,6-dimethyl-6-trifluoromethyl-3,6-dihydro-2H-[1,4]oxazin-3-yl)-pyridin-2-yl]-amide], the IC50 was determined as 0.043 µM in assay [1] (setting [3]) and 0.082 µM in assay [2] (setting [4]).
In the case of `Cc1cc(C#N)cnc1C(=O)Nc1cccc([C@]2(C)CO[C@@](C)(C(F)(F)F)C(N)=N2)n1` [Example 8, 5-Cyano-3-methyl-pyridine-2-carboxylic acid [6-((3R,6R)-5-amino-3,6-dimethyl-6-trifluoro-methyl-3,6-dihydro-2H-[1,4]oxazin-3-yl)-pyridin-2-yl]-amide], the IC50 came to 0.005 µM in assay [1] (setting [3]) and 0.02 µM in assay [2] (setting [4]).
For the molecule `COCCn1ccc2nc(C(=O)Nc3ccc(F)c([C@]4(C)CO[C@@](C)(C(F)(F)F)C(N)=N4)n3)c(Cl)cc21` [Example 48, 6-Chloro-1-(2-methoxy-ethyl)-1H-pyrrolo[3,2-b]pyridine-5-carboxylic acid [6-((3R,6R)-5-amino-3,6-dimethyl-6-trifluoromethyl-3,6-dihydro-2H-[1,4]oxazin-3-yl)-5-fluoro-pyridin-2-yl]-amide], the IC50 in assay [1] (setting [3]) is 7.3 µM; in assay [2], more than 10 µM.
`[2H]c1nc(C(=O)Nc2cccc([C@]3(C)CO[C@@](C)(C(F)(F)F)C(N)=N3)n2)c(C([2H])([2H])[2H])c([2H])c1Cl` [Example 21, 5-Chloro-4,6-dideuterio-3-trideuteriomethyl-pyridine-2-carboxylic acid [6-((3R,6R)-5-amino-3,6-dimethyl-6-trifluoromethyl-3,6-dihydro-2H-[1,4]oxazin-3-yl)-pyridin-2-yl]-amide]: the IC50 in assay [1] is 0.031 µM; in assay [2], 0.008 µM.
Consider `Cc1cc(OC(F)F)cnc1C(=O)Nc1ccc(F)c([C@]2(C)CO[C@@](C)(C(F)(F)F)C(N)=N2)n1` [Example 29, 5-Difluoromethoxy-3-methyl-pyridine-2-carboxylic acid [6-((3R,6R)-5-amino-3,6-dimethyl-6-trifluoromethyl-3,6-dihydro-2H-[1,4]oxazin-3-yl)-5-fluoro-pyridin-2-yl]amide], for which the IC50 in assay [1] (setting [3]) came to 0.026 µM; in assay [2] (setting [4]) it was 0.024 µM.
Consider `NC1=NC(CF)(c2cc(NC(=O)c3ccc(Br)cn3)cnc2Cl)COC1` (stereo not shown) [Example 18, 5-Bromo-pyridine-2-carboxylic acid [5-(5-amino-3-fluoromethyl-3,6-dihydro-2H-[1,4]oxazin-3-yl)-6-chloro-pyridin-3-yl]-amide hydrochloride], for which the values for the half-maximal inhibitory concentration (IC50) in assay [1] (setting [3]) and in assay [2] (setting [4]) were 0.14 µM and 0.13 µM, respectively.
As to `C[C@@]1(c2nc(NC(=O)c3nc4ccn(CC(F)F)c4cc3Cl)ccc2F)CO[C@@](C)(C(F)(F)F)C(N)=N1` [Example 47, 6-Chloro-1-(2,2-difluoro-ethyl)-1H-pyrrolo[3,2-b]pyridine-5-carboxylic acid [6-((3R,6R)-5-amino-3,6-dimethyl-6-trifluoromethyl-3,6-dihydro-2H-[1,4]oxazin-3-yl)-5-fluoro-pyridin-2-yl]-amide], the IC50 is more than 10 µM in assay [1] and 5.4 µM in assay [2] (setting [4]).
For `CC1(c2cccc(NC(=O)c3ccc(Br)cn3)n2)COCC(N)=N1` (racemic) [Example 2, 5-Bromo-pyridine-2-carboxylic acid [6-(5-amino-3-methyl-3,6-dihydro-2H-[1,4]-oxazin-3-yl)-pyridin-2-yl]-amide], the IC50 in assay [1] (setting [3]) was determined as 0.79 µM; in assay [2] (setting [4]) it was 0.36 µM.
For the molecule `NC(=S)c1ccc(C(=O)Nc2cccc(C3(CF)COCC(N)=N3)n2)nc1` (stereo not shown) [Example 7, 5-{6-[(5-Thiocarbamoyl-pyridine-2-carbonyl)-amino]-pyridin-2-yl}-5-fluoromethyl-5,6-dihydro-2H-[1,4]oxazin-3-yl-ammonium trifluoro-acetate], the results for the IC50 in assay [1] (setting [3]) and in assay [2] (setting [4]) were 2.1 µM and 8.7 µM, respectively.
With `C[C@@]1(c2cccc(NC(=O)c3ccc(C#N)cn3)n2)CO[C@@](C)(C(F)(F)F)C(N)=N1` [Example 10, 5-Cyano-pyridine-2-carboxylic acid [6-((3R,6R)-5-amino-3,6-dimethyl-6-trifluoromethyl-3,6-dihydro-2H-[1,4]oxazin-3-yl)-pyridin-2-yl]-amide], in assay [1] (setting [3]), the IC50 came to 0.039 µM.
On to `C[C@@]1(c2cc(NC(=O)c3ncc(C#N)cc3Cl)ncc2F)CO[C@@](C)(C(F)(F)F)C(N)=N1` [Example 35, 3-Chloro-5-cyano-pyridine-2-carboxylic acid [4-((3R,6R)-5-amino-3,6-dimethyl-6-trifluoromethyl-3,6-dihydro-2H-[1,4]oxazin-3-yl)-5-fluoro-pyridin-2-yl]-amide], for which the values for the IC50 in assay [1] (setting [3]) and in assay [2] (setting [4]) were 0.15 µM and 0.12 µM, respectively.
The corresponding values for `Cc1cc(C#N)cnc1C(=O)Nc1cc([C@]2(C)COC(CF)(CF)C(N)=N2)c(F)cn1` [Example 37, 5-Cyano-3-methyl-pyridine-2-carboxylic acid [4-((R)-5-amino-6,6-bis-fluoromethyl-3-methyl-3,6-dihydro-2H-[1,4]oxazin-3-yl)-5-fluoro-pyridin-2-yl]-amide] are 0.38 µM and 0.43 µM.
In assay [2], `[2H]c1nc(C(=O)Nc2cc(C3(CF)COCC(N)=N3)ccn2)c(C([2H])([2H])[2H])c([2H])c1Cl` (stereo not shown) [Example 13, 5-{2-[(5-Chloro-4,6-dideutero-3-trideuteromethyl-pyridine-2-carbonyl)-amino]-pyridin-4-yl}-5-fluoromethyl-5,6-dihydro-2H-[1,4]oxazin-3-yl-ammonium acetate] displayed an IC50 of 1.5 µM.

These data come from patent publication US8637508B2, “Heterocyclic derivatives and their use in the treatment of neurological disorders” (Novartis AG, priority 2011, dated 2014).
